Assay [1] in a line: Antiproliferative activity against murine BaF3 cell line expressing NPM-ALK.
The nature of assay [2]: Antiproliferative activity against human NPM-ALK positive anaplastic large cell lymphoma karpas299 cell line.

In general, IC50 refers to the concentration at which inhibition is half-maximal. A high value points to weaker potency in that assay. Take `CN1CCN(Cc2ccc(NC(=O)c3cc(-c4ccc5c(c4)OCO5)c[nH]c3=O)cc2)CC1` [5-benzo[1,3]dioxol-5-yl-2-oxo-1,2-dihydro-pyridine-3-carboxylic acid [4-(4-methyl-piperazin-1-ylmethyl)-phenyl]-amide]: the 50% inhibitory concentration (IC50) in assay [1] is greater than 25 µM; in assay [2] it was 11.2 µM.
In assay [2], `CN1CCN(CCc2ccc(NC(=O)c3cc(-c4ccc5c(c4)OCO5)c[nH]c3=O)cc2)CC1` [5-benzo[1,3]dioxol-5-yl-2-oxo-1,2-dihydro-pyridine-3-carboxylic acid {4-[2-(4-methyl-piperazin-1-yl)-ethyl]-phenyl}-amide] came in with a concentration for half-maximal inhibition (IC50) of 7.5 µM.
As to `CN1CCN(CCCc2ccc(NC(=O)c3cc(-c4ccc5c(c4)OCO5)c[nH]c3=O)cc2)CC1` [5-benzo[1,3]dioxol-5-yl-2-oxo-1,2-dihydro-pyridine-3-carboxylic acid {4-[3-(4-methyl-piperazin-1-yl)-propyl]-phenyl}-amide], the concentration for half-maximal inhibition (IC50) in assay [1] was 13.7 µM.
